From patent US20260001881A1, “COMPOUNDS AND METHODS FOR MODULATION OF G-PROTEIN-COUPLED RECEPTORS” (PRIMETIME LIFE SCIENCES, LLC, priority 2018, published 2026)

Experiments:
[1] = Stability of prodrugs in mouse plasma after 2 hours of treatment; assay type: in vitro ADME; settings: 37° C.
hA2AAR = hA2AAR (Homo sapiens (Human), UniProt P29274); experiment: Binding affinities for Adenosine receptors (hA2AAR); settings: HEK 293 cells stably expressing hA2AAR
hA3AR = hA3AR (Homo sapiens (Human), UniProt P0DMS8); experiment: Binding affinities for Adenosine receptors (hA3AR); settings: CHO cells stably expressing recombinant hA3AR
hA3AR, sequence (P0DMS8 whole entry): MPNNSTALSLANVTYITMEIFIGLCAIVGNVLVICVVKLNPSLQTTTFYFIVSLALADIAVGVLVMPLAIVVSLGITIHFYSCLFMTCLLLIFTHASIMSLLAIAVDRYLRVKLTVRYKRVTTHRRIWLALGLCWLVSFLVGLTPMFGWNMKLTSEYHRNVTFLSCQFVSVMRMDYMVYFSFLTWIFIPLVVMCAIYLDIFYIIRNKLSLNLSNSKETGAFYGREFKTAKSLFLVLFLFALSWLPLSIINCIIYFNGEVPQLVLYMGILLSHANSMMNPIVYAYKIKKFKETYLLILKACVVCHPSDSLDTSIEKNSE

hA1AR = hA1AR (Homo sapiens (Human), UniProt P30542); experiment: Binding affinities for Adenosine receptors (hA1AR); settings: CHO cells stably expressing recombinant hA1AR
hA1AR, sequence (P30542 whole entry): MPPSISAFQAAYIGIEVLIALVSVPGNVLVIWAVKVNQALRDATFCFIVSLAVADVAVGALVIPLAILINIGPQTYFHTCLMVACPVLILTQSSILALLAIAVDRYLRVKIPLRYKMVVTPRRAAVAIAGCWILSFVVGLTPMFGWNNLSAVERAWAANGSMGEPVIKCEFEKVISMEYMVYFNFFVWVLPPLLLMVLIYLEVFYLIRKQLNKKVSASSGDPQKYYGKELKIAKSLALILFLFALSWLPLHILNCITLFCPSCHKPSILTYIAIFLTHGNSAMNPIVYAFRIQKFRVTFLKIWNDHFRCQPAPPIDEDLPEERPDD

hA2AAR, sequence (P29274 whole entry): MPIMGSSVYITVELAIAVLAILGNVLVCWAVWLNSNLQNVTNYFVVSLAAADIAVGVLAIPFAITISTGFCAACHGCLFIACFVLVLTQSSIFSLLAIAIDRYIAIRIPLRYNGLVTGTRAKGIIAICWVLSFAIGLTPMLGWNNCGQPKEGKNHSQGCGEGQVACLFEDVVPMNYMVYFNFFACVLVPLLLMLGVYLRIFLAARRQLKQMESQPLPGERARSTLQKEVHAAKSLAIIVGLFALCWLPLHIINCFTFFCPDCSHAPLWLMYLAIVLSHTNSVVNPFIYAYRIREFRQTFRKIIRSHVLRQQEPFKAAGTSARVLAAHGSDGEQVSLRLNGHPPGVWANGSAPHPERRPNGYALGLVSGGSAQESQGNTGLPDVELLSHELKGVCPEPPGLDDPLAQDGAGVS

SMILES: CC(C)[C@H](N)C(=O)N(c1nc(Cl)nc2c1ncn2[C@H]1[C@H](O)[C@H](O)[C@@H]2C[C@@H]21)C(C1CC1)C1CC1 [Compound T3.1, (S)-2-amino-N-(2-chloro-9-((1S,2R,3S,4R,5R)-3,4-dihydroxybicyclo[3.1.0]hexan-2-yl)-9H-purin-6-yl)-N-(dicyclopropylmethyl)-3-methylbutanamide]
- Parent prodrug remained after 2 hours [1]: 14%

SMILES: OC[C@H]1O[C@@H](n2cnc3c(NC(C4CC4)C4CC4)ncnc32)[C@@H](O)C1O (some centres unmarked) [Compound T14.4]
- Ki (hA2AAR): 1 to 10 µM
- Ki (hA3AR): 1 to 10 µM
- Ki (hA1AR): > 10 µM

SMILES: C[C@@H]1CC(n2cnc3c(NC4C5(CC5)C45CC5)nc(Cl)nc32)C(O)C1O (some centres unmarked) [Compound T13.2]
- Ki (hA2AAR): 1 to 10 µM
- Ki (hA3AR): > 10 µM
- Ki (hA1AR): < 1 µM

SMILES: CNC(=O)[C@@]12C[C@@H]1[C@@H](n1cnc3c(NCc4cccc(Cl)c4)nc(C#Cc4ccc(F)c(F)c4)nc31)[C@@H]1OC3(CCN(C)CC3)O[C@@H]12 [Compound T9.8, (3aR,3bS,4aS,5R,5aS)-5-(6-((3-chlorobenzyl)amino)-2-((3,4-difluorophenyl)ethynyl)-9H-purin-9-yl)-N,1′-dimethyltetrahydrospiro[cyclopropa[3,4]cyclopenta[1,2-d][1,3]dioxole-2,4′-piperidine]-3b(3aH)-carboxamide]
- Parent prodrug remained after 2 hours [1]: 17%

SMILES: OC[C@H]1O[C@@H](n2cnc3c(NC(C4CCC4)C4CCC4)ncnc32)[C@@H](O)C1O (some centres unmarked) [Compound T14.6]
- Ki (hA2AAR): 1 to 10 µM
- Ki (hA3AR): 1 to 10 µM
- Ki (hA1AR): 1 to 10 µM

SMILES: OC[C@H]1O[C@@H](n2cnc3c(NC(C4CC4)C4CC4)nc(Cl)nc32)[C@@H](O)C1O (some centres unmarked) [Compound T14.1]
- Ki (hA2AAR): 1 to 10 µM
- Ki (hA3AR): > 10 µM
- Ki (hA1AR): 1 to 10 µM

SMILES: C[C@@H]1CC(n2cnc3c(NC(C4CC4)C4CC4)nc(Cl)nc32)C(O)C1O (some centres unmarked) [Compound T13.1]
- Ki (hA2AAR): > 10 µM
- Ki (hA3AR): 1 to 10 µM
- Ki (hA1AR): < 1 µM

SMILES: OC[C@H]1O[C@@H](n2cnc3c(NC(C4CCC4)C4CCC4)nc(Cl)nc32)[C@@H](O)C1O (some centres unmarked) [Compound T14.3]
- Ki (hA2AAR): 1 to 10 µM
- Ki (hA3AR): < 1 µM
- Ki (hA1AR): > 10 µM

SMILES: C[C@@H]1CC(n2cnc3c(NC(C4CCC4)C4CCC4)nc(Cl)nc32)C(O)C1O (some centres unmarked) [Compound T13.3]
- Ki (hA2AAR): > 10 µM
- Ki (hA3AR): > 10 µM
- Ki (hA1AR): < 1 µM

SMILES: C[C@@H]1CC(n2cnc3c(NC(C4CCC4)C4CCC4)ncnc32)C(O)C1O (some centres unmarked) [Compound T13.6]
- Ki (hA2AAR): 1 to 10 µM
- Ki (hA3AR): > 10 µM
- Ki (hA1AR): 1 to 10 µM

SMILES: OC[C@H]1O[C@@H](n2cnc3c(NC4C5(CC5)C45CC5)ncnc32)[C@@H](O)C1O (some centres unmarked) [Compound T14.5]
- Ki (hA2AAR): > 10 µM
- Ki (hA3AR): > 10 µM
- Ki (hA1AR): 1 to 10 µM

SMILES: C[C@@H]1CC(n2cnc3c(NC4C5(CC5)C45CC5)ncnc32)C(O)C1O (some centres unmarked) [Compound T13.5]
- Ki (hA2AAR): > 10 µM
- Ki (hA3AR): > 10 µM
- Ki (hA1AR): > 10 µM

SMILES: CC(C)[C@H](N)C(=O)OC[C@@]12C[C@@H]1[C@@H](n1cnc3c(NC(C4CC4)C4CC4)nc(Cl)nc31)[C@H](O)[C@@H]2O [Compound T4.1, ((1R,2R,3S,4R,5S)-4-(2-chloro-6-((dicyclopropylmethyl)amino)-9H-purin-9-yl)-2,3-dihydroxybicyclo[3.1.0]hexan-1-yl)methyl L-valinate]
- Parent prodrug remained after 2 hours [1]: 21%

SMILES: C[C@@H]1CC(n2cnc3c(NC(C4CC4)C4CC4)ncnc32)C(O)C1O (some centres unmarked) [Compound T13.4]
- Ki (hA2AAR): 1 to 10 µM
- Ki (hA3AR): > 10 µM
- Ki (hA1AR): 1 to 10 µM

SMILES: CC(C)[C@H](N)C(=O)OC1C(OC(=O)[C@@H](N)C(C)C)[C@@H]2C[C@@H]2C1n1cnc2c(NC(C3CC3)C3CC3)nc(Cl)nc21.Cl.Cl (stereo partly drawn) [Compound T1.1, (1R,5S)-4-(2-chloro-6-((dicyclopropylmethyl)amino)-9H-purin-9-yl)bicyclo[3.1.0]hexane-2,3-diyl (2S,2'S)-bis(2-amino-3-methylbutanoate), dihydrochloride salt]
- Parent prodrug remained after 2 hours [1]: 11%

SMILES: OC[C@H]1O[C@@H](n2cnc3c(NC4C5(CC5)C45CC5)nc(Cl)nc32)[C@@H](O)C1O (some centres unmarked) [Compound T14.2]
- Ki (hA2AAR): 1 to 10 µM
- Ki (hA3AR): > 10 µM
- Ki (hA1AR): > 10 µM

SMILES: CNC(=O)[C@@]12C[C@@H]1[C@@H](n1cnc3c(NCc4cccc(Cl)c4)nc(C#Cc4ccc(F)c(F)c4)nc31)[C@H](OC(=O)[C@@H](N)C(C)C)[C@@H]2OC(=O)[C@@H](N)C(C)C [Compound T8.1, (1S,2R,3S,4R,5S)-4-(6-((3-chlorobenzyl)amino)-2-((3,4-difluorophenyl)ethynyl)-9H-purin-9-yl)-1-(methylcarbamoyl)bicyclo[3.1.0]hexane-2,3-diyl (2S,2'S)-bis(2-amino-3-methylbutanoate)]
- Parent prodrug remained after 2 hours [1]: 9%
